We go through 4 molecules from US20210214376A1, “HALOGENATED BIOTIN-MODIFIED DIMER AND USE THEREOF” (The University of Tokyo, priority 2018, published 2021).

Assay [1] deals with T1, CEA-V2122 (Streptomyces avidinii, UniProt P22629, E125D/E140N/N47D/N73G/R108K/R127K/S51D/S69N/Y107S/Y46S).
T1 construct: At the C-terminus a 6xHis tag; The expressed gene carries a pelB signal
Kind of assay: Analysis of affinity of CEA-V2122 for Psyche B-iodine and Psyche P-iodine (Biacore T200, Single-Cycle Kinetics). It counts as binding. Conditions: for kon: read-out: Ka. From the text:
(§1) The data regarding the affinity of CEA-V2122 for Psyche B-iodine and for Psyche P-iodine were obtained in accordance with the description of Japanese Patent Application 2018-247363. Briefly stating, using an amine coupling kit (GE Healthcare Life Sciences), Sensor Chip CM5 (GE Healthcare Life Science) was set to be a target value that was 5000 RU, and the purified CEA-V2122 was immobilized. With regard to the concentration of the analyte, 5 types of two-fold serial dilutions from 1E-08 M to 6.25E-10 M were used. Biacore T200 (GE Healthcare Life Sciences) was used, the measurement temperature was set to be 25° C., and kinetics data were then obtained according to Single-Cycle Kinetics analysis. Using Biacore T200 Evaluation Software, version 2.0 (GE Healthcare Life Sciences), the obtained data were subjected to curve fitting in a Bivalent Analyze mode, and the evaluation value of each parameter was obtained. The dissociation constant KD is obtained according to Kd/Ka=KD.
On the technique in general: Surface plasmon resonance follows binding to a sensor surface in real time, without labels.

In assay [2] the target is T2, CEA-V2122 (Streptomyces avidinii, UniProt P22629, Y46S/N47D/S51D/S69N/N73G/Y107S/R108K/E125D/R127K/E140N).
T2 construct: At the C-terminus a 6xHis tag; The expressed gene carries a pelB signal
T2 sequence (P22629 whole entry Y46S/N47D/S51D/S69N/N73G/Y107S/R108K/E125D/R127K/E140N, looked up): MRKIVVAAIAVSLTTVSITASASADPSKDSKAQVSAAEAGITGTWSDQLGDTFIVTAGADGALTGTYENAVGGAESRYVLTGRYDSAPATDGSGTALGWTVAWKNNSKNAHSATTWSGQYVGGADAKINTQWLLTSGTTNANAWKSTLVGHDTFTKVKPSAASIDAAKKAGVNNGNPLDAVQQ
The description is as above. It counts as binding. To be noted: for bond with CEA-V2122: conclusion from Table 1; for koff: immobilized CEA-V2122, 25° C., Bivalent Analyze mode curve fitting.
From the text: as §1

Another assay concerns Herceptin-V2122. Kind of assay: Binding assay of astatine-labeled Psyche B and Herceptin-Cupid using Ni-NTA magnetic beads. Conditions: Herceptin-V2122 solution versus PBS control; 5.8 kBq; FIG. 5. The procedure: In order to confirm whether or not astatine-labeled Psyche B has binding ability to Cupid, a binding assay was carried out using Herceptin-Cupid and Ni-NTA magnetic beads (manufactured by Thermo) that bind to a 6×His-tag added to Herceptin-Cupid. Psyche B-At211 used herein was prepared according to Example 1(4), whereas Herceptin-Cupid was prepared according to the method described in Japanese Patent Application 2018-247363, as described above. The specific assay method is as follows.
That is, 4 μL of Herceptin-V2122 solution or PBS used as a control was dispensed into a 1.5-mL tube. Into the tube, 10 μL (corresponding to 5.8 kBq) of Psyche-At211 was added, and the obtained mixture was then incubated at room temperature for 5 minutes. Subsequently, 10 μL of Ni-NTA magnetic beads equilibrated with PBS were added to the reaction mixture, and the thus obtained mixture was then incubated at room temperature for 5 minutes. Thereafter, the beads were precipitated and immobilized by using a magnet, and a supernatant was then recovered. The supernatant was washed with 100 μL of PBS twice, and the radiation dose was then counted using a gamma counter. The results are shown in the graph of FIG. 5.

In assay [3] the test system is HER2-positive SKOV3 cells. Description: Binding of astatine-labeled Psyche B to Herceptin-V2122 pre-bound to SKOV3 cells. It is filed as cell-based. Conditions: 10 kBq/tube; Herceptin-V2122 versus negative control CEA-V2122; FIG. 6. The procedure:
(§2) Whether or not astatine-labeled Psyche B has binding ability to Herceptin-V2122, which had previously been bound to HER2-positive SKOV3 cells, was confirmed. As a negative control, CEA-V2122 was used. Psyche B-At211 used herein was prepared according to Example 1(4), whereas Herceptin-V2122 and CEA-V2122 were prepared according to the method described in Japanese Patent Application 2018-247363, as described above. The specific assay method is as follows.
(§3) Four 1.5-mL tubes were prepared, and the cells were then dispersed into each tube to a cell density of 0.875×10^6 cells/tube. Herceptin-V2122 was added to two tubes to result in N=2, whereas CEA-V2122 was added to the remaining two tubes. Subsequently, incubation was carried out on ice for 1 hour, and astatine-labeled Psyche B was then added to the resultant to 10 kBq/tube. Thereafter, the obtained mixture was incubated at room temperature for 30 minutes, while shaking. Finally, the cells were precipitated by centrifugation, and a supernatant was then recovered. The supernatant was washed with PBS twice, and the radiation dose was then counted using a gamma counter. The results are shown in the graph of FIG. 6.

In assay [4] the target is T3, HER2 (ERBB2) on HER2-positive SKOV3 ovarian cancer cells (UniProt P04626 23-1255, limits assumed).
T3 construct: whole, on cells
Kind of assay: astatine-211-labeled Psyche B counted by gamma counter on SKOV3 cells pre-incubated with the fusion protein; CEA-V2122 as negative control. As to the method:
as §2
as §3, with “0.875×10⁶” for “0.875×10^6”, “6. The measurement results were Herceptin-V2122-dependent, and it was confirmed that Psyche B-At212 bound to the SKOV3 cells via Herceptin-V2122.” for “6.”

T1 sequence (P22629 whole entry E125D/E140N/N47D/N73G/R108K/R127K/S51D/S69N/Y107S/Y46S, looked up): as the sequence (P22629 whole entry Y46S/N47D/S51D/S69N/N73G/Y107S/R108K/E125D/R127K/E140N, looked up) above

As for `N=C1N[C@H]2[C@H](CS[C@H]2CCCCC(=O)NCCCCCC(=O)Nc2cc(NC(=O)CCCCCNC(=O)CCCC[C@@H]3SC[C@@H]4NC(=N)N[C@@H]43)cc(C(=O)NCCOCCOCCNC(=O)c3cccc(I)c3)c2)N1` [Psyche B-iodine, (3aS,3a′S,4S,4′S,6aR,6a′R)-4,4′-(((((5-((2-(2-(2-(3-Iodobenzamido)ethoxy)ethoxy)ethyl)carbamoyl)-1,3-phenylene)bis(azanediyl))bis(6-oxohexane-6,1-diyl))bis(azanediyl))bis(5-oxopentane-5,1-diyl))bis(tetrahydro-1H-thieno[3,4-d]imidazol-2(3H)-iminium) 2,2,2-trifluoroacetate], on CEA-V2122 [1], binding was characterised by a dissociation constant (Kd) of 0.022 nM and the kon turned out to be 29000 M⁻¹ s⁻¹. At CEA-V2122 [2], the “bond with CEA-V2122” value was “form a stable bond with CEA-V2122” and the koff – broadly, the first-order rate constant of dissociation – was 6.4e-07 s⁻¹.
As for `N=C1N[C@H]2[C@H](CS[C@H]2CCCCC(=O)NCCCCCC(=O)Nc2cc(NC(=O)CCCCCNC(=O)CCCC[C@@H]3SC[C@@H]4NC(=N)N[C@@H]43)cc(C(=O)NCCOCCOCCNC(=O)c3cccc([211At])c3)c2)N1.O=C(O)C(F)(F)F.O=C(O)C(F)(F)F` [Psyche B-At211, (3aS,3a′S,4S,4′S,6aR,6a′R)-4,4′-(((((5-((2-(2-(2-(3-(Astato-^211At)benzamido)ethoxy)ethoxy)ethyl)carbamoyl)-1,3-phenylene)bis(azanediyl))bis(6-oxohexane-6,1-diyl))bis(azanediyl))bis(5-oxopentane-5,1-diyl))bis(tetrahydro-1H-thieno[3,4-d]imidazol-2(3H)-iminium) 2,2,2-trifluoroacetate], the “precipitation with Ni-NTA magnetic beads, radiation dose by gamma counter” value in the assay with Herceptin-V2122 was “precipitated in a Herceptin-V2122 presence-dependent manner”. In addition, in assay [3], the “binding to SKOV3 cells, radiation dose by gamma counter” value was “bound to the SKOV3 cells via Herceptin-V2122”.
Turning to `N=C1N[C@H]2[C@H](CS[C@H]2CCCCCOCCCCNC(=O)CN(CCOCCOCCNC(=O)c2cccc(I)c2)CC(=O)NCCCCOCCCCC[C@@H]2SC[C@@H]3NC(=N)N[C@@H]32)N1` [Psyche P-iodine, 2,2′-((2-(2-(2-(3-Iodobenzamido)ethoxy)ethoxy)ethyl)azanediyl)bis(N-(4-((5-((3aS,4S,6aR)-2-iminohexahydro-1H-thieno[3,4-d]imidazol-4-yl)pentyl)oxy)butyl)acetamide) 2,2,2-trifluoroacetate], on CEA-V2122 [1], the Kd – broadly, the equilibrium constant for the complex coming apart – is 4.5 nM and the kon was 6800 M⁻¹ s⁻¹. For the same molecule, at CEA-V2122 [2], the “bond with CEA-V2122” value is “form a stable bond with CEA-V2122” and the koff is 3.1e-05 s⁻¹.

B1: CEA-V2122 (scFv)
scFv: QVKLEQSGAEVVKPGASVKLSCKASGFNIKDSYMHWLRQGPGQRLEWIGWIDPENGDTEYAPKFQGKATFTTDTSANTAYLGLSSLRPEDTAVYYCNEGTPTGPYYFDYWGQGTLVTVSSGGGGSGGGGSGGGGSENVLTQSPSSMSVSVGDRVNIACSASSSVPYMHWLQQKPGKSPKLLIYLTSNLASGVPSRFSGSGSGTDYSLTISSVQPEDAATYYCQQRSSYPLTFGGGTKLEIKGGGGSGGGGAEAGITGTWSDQLGDTFIVTAGADGALTGTYENAVGGAESRYVLTGRYDSAPATDGSGTALGWTVAWKNNSKNAHSATTWSGQYVGGADAKINTQWLLTSGTTNANAWKSTLVGHDTFTKVKPSAASHHHHHH
notes: Fusion of an anti-CEACAM5 scFv and mutant streptavidin V2122; also called scFv-V2122 (anti-CEACAM5)
B1: the binding result in assay [4] is given as “no binding”.
